5 compounds from ChEMBL document CHEMBL1201862, “PubChem BioAssay data set” (2004) can be followed below.

As usually defined, the IC50 is the midpoint of a concentration-inhibition curve.

Calls of active or inactive are those of the source. A value given as a limit tells only on which side of the number the result lay.

Experiment [1] has as its target T1, Sentrin-specific protease 8 (Homo sapiens, UniProt Q96LD8).
T1 sequence (Q96LD8 whole entry): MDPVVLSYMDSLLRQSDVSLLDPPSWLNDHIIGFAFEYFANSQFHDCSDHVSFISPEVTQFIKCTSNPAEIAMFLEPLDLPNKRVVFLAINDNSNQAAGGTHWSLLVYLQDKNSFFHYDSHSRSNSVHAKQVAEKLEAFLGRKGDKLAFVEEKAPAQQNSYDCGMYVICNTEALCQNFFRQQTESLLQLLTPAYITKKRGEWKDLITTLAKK
In words: SENP8 protease inhibitors, SAR follow-up, biochemical, luminescence, set 2 (AID 588601). In kind it is functional.

The target in experiment [2] is T2, Sentrin-specific protease 7 (Homo sapiens, UniProt Q9BQF6).
T2 sequence (Q9BQF6 whole entry): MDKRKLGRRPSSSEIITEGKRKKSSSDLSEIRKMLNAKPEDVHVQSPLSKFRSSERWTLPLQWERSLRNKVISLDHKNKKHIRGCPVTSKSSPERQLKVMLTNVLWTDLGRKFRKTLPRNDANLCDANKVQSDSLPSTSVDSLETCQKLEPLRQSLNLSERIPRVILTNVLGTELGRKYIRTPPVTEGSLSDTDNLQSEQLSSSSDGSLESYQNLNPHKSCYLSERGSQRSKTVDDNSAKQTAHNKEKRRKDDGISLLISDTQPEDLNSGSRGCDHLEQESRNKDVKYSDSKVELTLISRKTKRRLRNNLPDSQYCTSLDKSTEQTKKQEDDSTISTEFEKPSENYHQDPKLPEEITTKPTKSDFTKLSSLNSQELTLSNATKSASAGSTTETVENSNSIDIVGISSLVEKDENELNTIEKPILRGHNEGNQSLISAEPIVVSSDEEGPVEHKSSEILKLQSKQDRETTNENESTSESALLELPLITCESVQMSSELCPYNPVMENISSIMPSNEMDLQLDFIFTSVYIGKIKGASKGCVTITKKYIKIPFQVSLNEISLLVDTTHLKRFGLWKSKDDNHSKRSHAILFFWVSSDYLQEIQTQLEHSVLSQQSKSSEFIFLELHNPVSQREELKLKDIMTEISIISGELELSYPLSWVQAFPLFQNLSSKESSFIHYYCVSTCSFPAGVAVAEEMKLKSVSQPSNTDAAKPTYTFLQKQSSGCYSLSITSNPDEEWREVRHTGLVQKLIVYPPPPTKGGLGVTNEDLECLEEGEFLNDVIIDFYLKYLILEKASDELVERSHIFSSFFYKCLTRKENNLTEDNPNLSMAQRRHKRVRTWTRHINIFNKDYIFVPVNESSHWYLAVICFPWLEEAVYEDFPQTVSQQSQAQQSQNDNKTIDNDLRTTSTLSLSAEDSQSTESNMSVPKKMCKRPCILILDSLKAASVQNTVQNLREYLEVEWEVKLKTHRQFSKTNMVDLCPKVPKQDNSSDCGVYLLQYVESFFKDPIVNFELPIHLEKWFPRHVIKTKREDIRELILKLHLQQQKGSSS
In words: SENP7 protease inhibitors, SAR follow-up, biochemical, luminescence, set 2 (AID 588600). Format: functional.

The target of experiment [3] is T3, Sentrin-specific protease 6 (Homo sapiens, UniProt Q9GZR1).
T3 sequence (Q9GZR1 whole entry): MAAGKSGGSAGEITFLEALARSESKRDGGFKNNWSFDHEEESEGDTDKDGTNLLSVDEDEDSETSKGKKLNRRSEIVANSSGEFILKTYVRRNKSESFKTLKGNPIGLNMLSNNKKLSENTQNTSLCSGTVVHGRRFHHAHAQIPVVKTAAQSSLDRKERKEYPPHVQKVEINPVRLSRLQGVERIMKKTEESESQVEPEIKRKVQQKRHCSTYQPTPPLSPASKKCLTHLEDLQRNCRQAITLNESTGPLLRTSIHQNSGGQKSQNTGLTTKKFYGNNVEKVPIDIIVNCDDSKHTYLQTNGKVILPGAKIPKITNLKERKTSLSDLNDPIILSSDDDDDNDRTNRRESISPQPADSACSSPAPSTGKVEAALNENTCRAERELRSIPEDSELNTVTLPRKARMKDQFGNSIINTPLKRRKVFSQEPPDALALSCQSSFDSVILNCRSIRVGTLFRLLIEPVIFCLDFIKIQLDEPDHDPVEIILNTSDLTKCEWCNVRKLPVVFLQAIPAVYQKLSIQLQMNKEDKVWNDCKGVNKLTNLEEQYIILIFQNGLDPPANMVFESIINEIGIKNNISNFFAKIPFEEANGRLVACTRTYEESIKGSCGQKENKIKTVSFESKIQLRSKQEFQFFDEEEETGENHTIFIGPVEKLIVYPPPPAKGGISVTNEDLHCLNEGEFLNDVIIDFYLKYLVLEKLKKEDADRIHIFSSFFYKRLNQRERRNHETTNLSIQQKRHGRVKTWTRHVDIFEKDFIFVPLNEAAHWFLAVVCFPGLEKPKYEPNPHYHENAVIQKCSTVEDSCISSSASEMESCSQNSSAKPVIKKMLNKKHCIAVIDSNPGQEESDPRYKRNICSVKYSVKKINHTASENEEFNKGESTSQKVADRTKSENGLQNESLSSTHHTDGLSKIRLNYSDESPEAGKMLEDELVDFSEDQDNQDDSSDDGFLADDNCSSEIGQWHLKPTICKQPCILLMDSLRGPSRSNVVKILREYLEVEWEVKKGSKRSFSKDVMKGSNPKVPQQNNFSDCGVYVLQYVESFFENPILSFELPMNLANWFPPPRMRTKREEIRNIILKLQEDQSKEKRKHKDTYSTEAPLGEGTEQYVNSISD
In words: SENP6 protease inhibitors, SAR follow-up, biochemical, luminescence, set 2 (AID 588598). In kind it is functional.

Experiment [4] deals with T4, Caspase-3 (Homo sapiens, UniProt P42574).
T4 sequence (P42574 whole entry): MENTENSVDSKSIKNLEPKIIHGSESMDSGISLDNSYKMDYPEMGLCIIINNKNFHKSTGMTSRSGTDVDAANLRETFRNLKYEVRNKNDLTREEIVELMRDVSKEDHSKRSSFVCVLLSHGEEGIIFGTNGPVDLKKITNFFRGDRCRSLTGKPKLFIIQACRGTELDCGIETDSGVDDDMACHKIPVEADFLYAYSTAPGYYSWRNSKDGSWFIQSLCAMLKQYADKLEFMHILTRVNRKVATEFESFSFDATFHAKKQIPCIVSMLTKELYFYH
In words: caspase-3 inhibitors as off-family protease, SAR follow-up, selectivity assay for SENP protease inhibitor project, biochemical, luminescence, set 2 (AID 588599). Format: functional.

Experiment [5] concerns the target T4, Caspase-3. In kind it is functional.
Experiment [6] concerns the target T2, Sentrin-specific protease 7. In kind it is functional.
Experiment [7] concerns the target T3, Sentrin-specific protease 6. In words: SAR Analysis of small molecule inhibitors of Sentrin-specific protease 6 (SENP6) using a Luminescent assay. [Related pubchem assays (depositor defined):AID2582, AID2599]. In kind it is functional.
Experiment [8] deals with T4, Caspase-3. In words: SAR Analysis of small molecule inhibitors of Sentrin-specific proteases (SENPs) using a Caspase-3 Selectivity assay. [Related pubchem assays (depositor defined):AID2540, AID2599, AID434973, AID489001]. In kind it is functional.
Experiment [9] has as its target T1, Sentrin-specific protease 8. In words: SENP8 protease inhibitors, SAR follow-up, biochemical, luminescence (AID 504501). Format: functional.
The target is the same in experiment [10]. In kind it is functional.
Experiment [11] deals with T3, Sentrin-specific protease 6. Format: functional.
The target of experiment [12] is T2, Sentrin-specific protease 7. In words: SENP7 protease inhibitors, SAR follow-up, biochemical, luminescence (AID 504497). In kind it is functional.
Experiment [13] addresses Platelet-activating factor acetylhydrolase (Mus musculus, UniProt Q60963). In words: Late stage assay provider results from the probe development effort to identify inhibitors of plasma platelet activating factor acetylhydrolase (pPAFAH): fluorescence-based dose response biochemical gel-based competitive Activity-Based Protein Profiling (ABPP) assay for HTS compounds. [Related pubchem assays (depositor defined):AID463082, AID463092, AID463230, AID588474]. In kind it is cell-free.

Experiment [14] deals with T5, Botulinum neurotoxin type F (Clostridium botulinum, UniProt P30996). In words: High-throughput multiplex microsphere dose response for inhibitors of toxin protease, specifically Botulinum neurotoxin light chain F protease, compounds from Powder Set 01. Format: functional, Clostridium botulinum Bf. The settings on record: read-out: EC50_MICROM.
In another experiment the test system is CHO. In words: cytotoxicity in TLR9-MyD88 CHO cells, dose response, cytotoxicity control for TLR9-MyD88 binding inhibitor project, cell-based, luminescence (AID 588339).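 Also: CHO cells stably coexpressing TLR9 and MyD88 fusions from primary screen; compound exposure lasted 48 hours before viability readout.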 Format: functional, hamster. As to conditions: Cricetulus griseus.
For experiment [15], the target named is G-protein coupled receptor 55 (Homo sapiens, UniProt Q9Y2T6). In words: GPR55 agonists via beta-arrestin recruitment, primary screen, imaging, U2OS cells, beta-arrestin-GFP redistribution (AID 1961). Format: functional. For orientation: Recruitment of arrestin is a read-out of receptor activation apart from second messengers.
Experiment [16] addresses T6, Botulinum neurotoxin type A (Clostridium botulinum (strain Hall / ATCC 3502 / NCTC 13319 / Type A), UniProt P0DPI1). In words: High-throughput multiplex microsphere dose response for inhibitors of toxin protease, specifically Botulinum neurotoxin light chain A protease, compounds from Powder Set 01. The settings on record: read-out: EC50_MICROM. In kind it is functional, Clostridium botulinum A str. ATCC 3502.

Another experiment deals with Beta Lactamase (Pseudomonas aeruginosa, UniProt Q932Y6). In words: beta-lactamase reporter inhibitor potency, dose response, artefact control for TLR9-MyD88 binding inhibitor project, BLA reporter cells, FRET fluorescence (AID 588341).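 Also: cell based assay in CHO-K1 cells stably expressing beta-lactamase.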 In kind it is cell-based.
Experiment [17] has as its target 5-hydroxytryptamine receptor 1E (Homo sapiens, UniProt P28566). In words: Counterscreen assay for S1P3 antagonists: Dose response cell-based high throughput screening assay to identify antagonists of the 5-Hydroxytryptamine Receptor Subtype 1E (5HT1E). [Related pubchem assays: 1429, 485 ]. Format: functional. In general terms: The purpose of a counterscreen is to sort out artefacts and off-target activity.

Experiment [18] has as its target T6, Botulinum neurotoxin type A. In words: High-throughput multiplex microsphere dose response for inhibitors of toxin protease, specifically Botulinum neurotoxin light chain A protease, compounds from Cherry Pick 01. Format: functional. As to conditions: read-out: EC50_MICROM.
Experiment [19] addresses T5, Botulinum neurotoxin type F. In words: High-throughput multiplex microsphere dose response for inhibitors of toxin protease, specifically Botulinum neurotoxin light chain F protease, compounds from Cherry Pick 01. In kind it is functional. As to conditions: read-out: EC50_MICROM.
Experiment [20] has as its target Sphingosine 1-phosphate receptor 3 (Homo sapiens, UniProt Q99500). In words: Dose response cell-based high throughput screening assay for antagonists of the Sphingosine 1-Phosphate Receptor 3 (S1P3). [Related pubchem assays: 1429, 485 ]. Format: functional.
Experiment [21] deals with T6, Botulinum neurotoxin type A. In words: Confirmatory FRET assay using full length substrates for Botulinum neurotoxin light chain A protease, with Powder Set01. Format: functional.
Experiment [22] is described as follows: A Cell Based Secondary Assay to Explore Cytotoxicity in HepG2 Cells of Compounds that Modulate Mycobacterium tuberculosis in Media Containing Glycerol versus Media without Glycerol (2). Format: functional.
A short description of experiment [23]: A Cell Based Secondary Assay to Explore Cytotoxicity in THP-1 Cells of Compounds that Modulate Mycobacterium tuberculosis in Media Containing Glycerol versus Media without Glycerol (2). In kind it is functional.
A short description of experiment [24]: Vero cell cytotoxicity, cytotoxicity control for M. tuberculosis inhibitor project, purified and synthesized samples, set 3 (AID 504684). In kind it is functional. The settings on record: […].
A short description of experiment [25]: microbe, parasite or virus in culture. Format: functional. The settings on record: Mycobacterium tuberculosis.

T6 sequence (P0DPI1 2-448 limits assumed): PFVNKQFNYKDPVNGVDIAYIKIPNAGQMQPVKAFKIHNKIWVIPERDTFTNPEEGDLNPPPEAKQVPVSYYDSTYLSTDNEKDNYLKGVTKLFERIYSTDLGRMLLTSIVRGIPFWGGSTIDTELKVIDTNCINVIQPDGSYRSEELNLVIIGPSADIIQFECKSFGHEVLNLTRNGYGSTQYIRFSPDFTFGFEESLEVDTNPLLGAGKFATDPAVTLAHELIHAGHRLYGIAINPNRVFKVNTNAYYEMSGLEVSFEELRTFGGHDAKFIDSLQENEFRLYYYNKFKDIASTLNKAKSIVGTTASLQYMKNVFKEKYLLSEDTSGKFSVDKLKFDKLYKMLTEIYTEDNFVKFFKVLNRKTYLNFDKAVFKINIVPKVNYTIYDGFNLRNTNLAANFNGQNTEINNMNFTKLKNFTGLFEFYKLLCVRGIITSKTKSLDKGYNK
T5 sequence (P30996 1-436 limits assumed): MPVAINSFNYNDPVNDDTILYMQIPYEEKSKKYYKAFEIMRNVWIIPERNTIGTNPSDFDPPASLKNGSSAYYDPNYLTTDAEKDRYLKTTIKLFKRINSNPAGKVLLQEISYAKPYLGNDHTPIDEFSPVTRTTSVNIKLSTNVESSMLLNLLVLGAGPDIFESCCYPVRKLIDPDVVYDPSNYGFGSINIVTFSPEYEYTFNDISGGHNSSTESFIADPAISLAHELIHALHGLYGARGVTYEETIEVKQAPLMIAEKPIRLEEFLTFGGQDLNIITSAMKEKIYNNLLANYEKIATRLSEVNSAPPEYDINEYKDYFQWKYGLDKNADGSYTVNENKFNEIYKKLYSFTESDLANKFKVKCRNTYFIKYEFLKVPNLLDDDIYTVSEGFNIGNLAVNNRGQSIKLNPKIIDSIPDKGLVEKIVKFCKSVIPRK
Sequence of Sphingosine 1-phosphate receptor 3 (Q99500 whole entry): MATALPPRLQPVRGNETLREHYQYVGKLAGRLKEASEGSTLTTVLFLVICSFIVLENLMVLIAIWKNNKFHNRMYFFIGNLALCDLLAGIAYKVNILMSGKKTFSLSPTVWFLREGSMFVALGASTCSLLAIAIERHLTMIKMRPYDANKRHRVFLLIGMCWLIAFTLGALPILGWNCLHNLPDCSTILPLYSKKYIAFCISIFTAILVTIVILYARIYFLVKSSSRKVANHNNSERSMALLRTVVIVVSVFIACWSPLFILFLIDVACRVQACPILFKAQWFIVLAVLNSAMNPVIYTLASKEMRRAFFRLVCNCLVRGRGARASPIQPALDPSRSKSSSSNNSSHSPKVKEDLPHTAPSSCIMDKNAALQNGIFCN
Sequence of Beta Lactamase (Q932Y6 whole entry): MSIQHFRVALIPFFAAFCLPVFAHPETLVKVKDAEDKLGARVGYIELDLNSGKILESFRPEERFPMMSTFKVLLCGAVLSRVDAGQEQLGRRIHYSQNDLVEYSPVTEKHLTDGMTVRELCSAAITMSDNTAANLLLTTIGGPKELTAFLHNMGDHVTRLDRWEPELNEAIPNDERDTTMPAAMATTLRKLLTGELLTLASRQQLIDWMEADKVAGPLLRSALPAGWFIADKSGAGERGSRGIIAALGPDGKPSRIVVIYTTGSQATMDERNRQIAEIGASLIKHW
Sequence of 5-hydroxytryptamine receptor 1E (P28566 whole entry): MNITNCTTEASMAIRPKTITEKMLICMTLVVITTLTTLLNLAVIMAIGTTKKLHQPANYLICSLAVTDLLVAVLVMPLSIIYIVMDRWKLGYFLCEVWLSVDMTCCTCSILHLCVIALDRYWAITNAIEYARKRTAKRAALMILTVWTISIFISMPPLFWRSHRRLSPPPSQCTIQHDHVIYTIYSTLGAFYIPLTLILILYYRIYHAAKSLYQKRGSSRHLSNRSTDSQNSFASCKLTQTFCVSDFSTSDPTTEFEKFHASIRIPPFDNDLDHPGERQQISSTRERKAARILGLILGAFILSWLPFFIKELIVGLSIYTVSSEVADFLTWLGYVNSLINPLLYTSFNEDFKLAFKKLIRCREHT
Sequence of G-protein coupled receptor 55 (Q9Y2T6 whole entry): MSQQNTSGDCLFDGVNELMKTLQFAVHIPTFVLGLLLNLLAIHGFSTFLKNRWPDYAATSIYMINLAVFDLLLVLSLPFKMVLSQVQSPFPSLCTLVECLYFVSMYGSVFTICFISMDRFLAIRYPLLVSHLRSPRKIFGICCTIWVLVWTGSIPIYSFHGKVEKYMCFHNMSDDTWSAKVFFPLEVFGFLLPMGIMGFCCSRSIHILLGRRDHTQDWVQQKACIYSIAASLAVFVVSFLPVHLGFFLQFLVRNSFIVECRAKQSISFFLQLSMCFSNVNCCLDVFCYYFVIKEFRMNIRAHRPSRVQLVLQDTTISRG
Sequence of Platelet-activating factor acetylhydrolase (Q60963 whole entry): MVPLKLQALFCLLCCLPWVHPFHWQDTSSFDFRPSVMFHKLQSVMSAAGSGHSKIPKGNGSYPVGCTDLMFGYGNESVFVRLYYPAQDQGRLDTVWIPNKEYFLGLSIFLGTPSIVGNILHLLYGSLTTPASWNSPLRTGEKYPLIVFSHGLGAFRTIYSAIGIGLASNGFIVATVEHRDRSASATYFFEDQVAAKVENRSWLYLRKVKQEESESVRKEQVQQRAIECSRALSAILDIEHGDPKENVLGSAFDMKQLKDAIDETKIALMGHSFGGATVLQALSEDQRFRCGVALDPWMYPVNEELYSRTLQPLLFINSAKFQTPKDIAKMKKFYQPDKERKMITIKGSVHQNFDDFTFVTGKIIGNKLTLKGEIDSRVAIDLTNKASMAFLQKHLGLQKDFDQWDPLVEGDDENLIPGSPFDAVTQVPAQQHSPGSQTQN

In the case of `O=S(=O)(c1ccc2[nH]cc(/C=N\NC(=S)Nc3cccc(Cl)c3)c2c1)N1CCCCC1`, the IC50 (in experiment [1]; in experiment [2]; in experiment [3]; at Caspase-3 [4]) was > 99 µM (inactive) throughout.
With `Cc1cc(O)c(-c2cc(C(=O)Nc3cccnc3)[nH]n2)cc1C`, the concentration for half-maximal inhibition (IC50) on Caspase-3 [5] was 32.2 µM (active); in experiment [6], 3.61 µM (active); in [7], > 99 µM (inactive); at Caspase-3 [8], 8.64 µM (active); in experiment [9], > 99 µM (inactive); in experiment [10], > 100 µM (inactive). Further, the IC50 in experiment [11] was > 100 µM (inactive); in experiment [12] it was 2.97 µM (active).
On to `CN(C)C(=O)Oc1noc2cc(Cl)ccc12`, for which, in experiment [13], the IC50 was 0.234 µM (active).
For `O=[N+]([O-])c1ccc(C2=NN(c3ccccc3)C(c3ccco3)C2)cc1` (configuration not stated), the EC50 in experiment [14] was 0.5 µM (active); in experiment [15], < 0.5 µM (active); in experiment [16], 0.4 µM (active); in [18], 2.6 µM (active); in experiment [19], 1.5 µM (active); in experiment [21] it was 3.1 µM (active). The IC50 with CHO was > 49.7 µM (inactive); on Beta Lactamase it was 2.64 µM (active); in [17], 2.49 µM (active); in [20] it was 3.78 µM (active).
With `Oc1ccccc1/C=N/Nc1ccnc(SCc2ccccc2)n1`, the CC50 is 18.5 µM (active) in experiment [22], 57.4 µM (active) in experiment [23], 26.7 µM (active) in [24] and > 40 µM (active) in experiment [25].
